Key:
4T1 mouse breast tumor = 4T1 mouse breast tumor growth ± L-fucose supplemented water; assay type: in vivo, Balb/C mice; conditions: 500 mM L-fucose supplemented water ad libitum from 100 mm^3 (FIG. 3H)
Protocol: To determine which immune cell populations were affected by L-fucose, another mouse melanoma model treated with control or L-fucose-supplemented water was used. […] Rather than being immunosuppressive, these cells elicit immunostimulatory activity (at this point in terms of augmenting T cell activation) (FIG. 3). […] In fact, upon reaching 100 mm^3, 4T1 mouse breast tumor-bearing Balb/C mice were provided with control or 500 mM L-fucose supplemented water ad libitum and L-fucose suppressed tumor growth by 50% (FIG. 3H). Moreover, the number of TILs increased following administration of L-fucose (FIG. 3C). We next looked at the specific populations of cells proliferating in TILs following L-fucose administration. We saw a 3.1 fold increase in MDSC cell and CD4 T cells (FIG. 3D). To verify that the increases in the TIL populations were attributed to fucosylation, we treated mice with L-fucose or 2FF (fucosylation inhibitor) and observed the change in MDSC. We observed that L-fucose increased MDSC populations, but 2FF decreased MDSC (FIG. 3E). […] This shift is depicted in FIG. 4.

[1] = system: NRAS G13D-mutant mouse melanoma (SW1) tumors; assay: SW1 mouse melanoma model ± oral L-fucose: tumor growth, tumor fucosylation, itIC and splenic flow cytometric profiling; assay type: in vivo, C3H/HeN mice; conditions: oral L-fuc
Protocol: Tumors of SW1 or SM1 melanoma cells from […] or C57BL/6 mice, respectively) were digested using 1× tumor digest buffer (0.5 mg/mL Collagenase I, 0.5 mg/mL Collagenase IV, 0.25 mg/mL Hyalyronidase V, 0.1 mg/mL DNAse I in HBSS (Millipore Sigma (St. Louis, MO)). Tumors were homogenized using the Miltenyi MACs dissociator. Red blood cells were lysed using ACK lysis buffer (Life Technologies, (Grand Island, NY)). Tumor homogenate cells were counted using a standard hemocytometer.
Total TILs were gated first to single cells (based on forward scatter height vs width, followed by side scatter height vs. width). Live cells were gated from the Zombie negative population from the population above. TILs were gated based on splenocyte size from a control spleen. Individual immune subpopulations were sub-gated from the total TIL population using the following staining criteria: CD3+ for CD3+ T cells; CD3+/CD4+/CD8− for CD4+T cells; CD3+/CD4−/CD8+ for CD8+ T cells, CD11c+/CD11b+ for DCs; either NK1.1 (for C57/BL6 mice) or DX5 (for C3H/HeJ) for NK cells; CD11b+/GR1+ for MDSC-like cells; and F4/80+ for macrophages. Single-cell suspensions from tumor and spleen tissue were stained with Live/Dead Zombie NIR (Biolegend, (San Diego, CA)) at 1:1,000 in PBS for 20 min. Cell suspensions were spun down and stained with the following with antibodies at 0.5 μg/ml per antibody: APC anti-mouse CD3, Pacific Blue anti-mouse CD4, BV785 anti-mouse CD8, PerCP anti-mouse CD25, FITC anti-mouse F4/80, PeCy7 anti-mouse CD11c, PE anti-mouse NK1.1 or PE anti-mouse DX5, and PerCP-Cy5.5 anti-mouse CD11 b. After staining, the cells were washed and fixed (2% formaldehyde), followed by another wash and flow cytometric analysis. The compensation controls were prepared using 0.5 μg/mL of each antibody with UltraComp eBeads, (ThermoFisher Scientific (Waltham, MA)). All samples were subject to flow cytometric profiling using a LSR Flow Cytometer (BD Biosciences (San Jose, CA)) and analysis as indicated using FlowJo software (BD Biosciences (San Jose, CA)).
For assessment of mouse tumor fucosylation, FFPE tumor sections were immunostained with FITC-conjugated AAL lectin (0.4 μg/mL, Vector Laboratories (Burlingame, CA)) and rabbit anti-Mart1+rabbit anti-S100 (melanoma marker cocktail). The slides were mounted with Vectashield+DAPI (Vector Laboratories (Burlingame, CA)). Four representative microscopy images per tumor were acquired using a Keyence BZ-X710, and images were process and analyzed using FIJI (NIH) as follows: melanoma marker-positive regions were assigned as regions of interest (ROI) in which we measured Integrated density of AAL signal. Integrated densities of control tumors were assigned as 1, and Integrated AAL density values of experimental tumors were divided by control to produce relative fold changes and plotted as column charts. […]

In the case of `C[C@H](O)[C@@H](O)[C@@H](O)[C@H](O)C=O` [L-fucose], the “suppression of tumor growth” value (4T1 mouse breast tumor) is reported as 50%, the “CD4+ and CD8+ T cells of total itICs” value [1] is reported as “doubled” and the “increase of total itICs” value [1] is reported as 10-50 fold. The “increase of tumor fucosylation” value [1] was ~2 fold, the “reduction of tumor growth” value [1] was ~50% and the splenic lymphocyte profiles [1] was “without altering”.
